Test results published in the NIST ThermoML archive (doi:10.1016/j.jct.2012.04.018).
Several values for one entry are separate records, joined by “and”; a condition that tells them apart may be missing. Equal entries are not always repeated. ± gives the expanded uncertainty stated by the source.

What was measured:
[1] = heat capacity at constant pressure per volume; xn = mol fraction of the nth substance listed; conditions: 101 kPa, Liquid, DSC, calvet, x2 = 0.44
[2] = refractive index (other wavelength) (dimensionless); xn = mol fraction of the nth substance listed; conditions: 290.9 K, 101 kPa, Liquid, Wavelength=632.8 nm, He-Ne laser

N#Cc1ccccc1 [benzonitrile] + CCCCCCCCCCC
Conditions	heat capacity	refractive index
[1], 286.54 K	1846500 ± 14000 J/K/m3	–
[1], 286.76 K	1854000 ± 14000 J/K/m3	–
[1], 286.99 K	1862200 ± 15000 J/K/m3	–
[1], 287.22 K	1857300 ± 14000 J/K/m3	–
[1], 287.45 K	1862800 ± 14000 J/K/m3	–
[1], 287.68 K	1867600 ± 14000 J/K/m3	–
[1], 287.91 K	1870300 ± 14000 J/K/m3	–
[1], 288.14 K	1878500 ± 15000 J/K/m3	–
[1], 288.37 K	1879100 ± 15000 J/K/m3	–
[1], 288.6 K	1887700 ± 15000 J/K/m3	–
[1], 288.83 K	1896600 ± 15000 J/K/m3	–
[1], 288.94 K	1895600 ± 15000 J/K/m3	–
[1], 289.06 K	1899000 ± 16000 J/K/m3	–
[1], 289.17 K	1913500 ± 16000 J/K/m3	–
[1], 289.29 K	1889000 ± 12000 J/K/m3	–
[1], 289.4 K	1931900 ± 16000 J/K/m3	–
[1], 289.43 K	1910800 ± 15000 J/K/m3	–
[1], 289.46 K	1918000 ± 16000 J/K/m3	–
[1], 289.5 K	1946800 ± 18000 J/K/m3	–
[1], 289.53 K	1960500 ± 18000 J/K/m3	–
[1], 289.56 K	1952300 ± 18000 J/K/m3	–
[1], 289.6 K	1953700 ± 17000 J/K/m3	–
[1], 289.63 K	1973800 ± 18000 J/K/m3	–
[1], 289.67 K	1984300 ± 21000 J/K/m3	–
[1], 289.7 K	1990700 ± 20000 J/K/m3	–
[1], 289.74 K	1995400 ± 23000 J/K/m3	–
[1], 289.75 K	2003100 ± 19000 J/K/m3	–
[1], 289.77 K	2011400 ± 22000 J/K/m3	–
[1], 289.78 K	2022500 ± 25000 J/K/m3	–
[1], 289.79 K	2035800 ± 26000 J/K/m3	–
[1], 289.8 K	2046300 ± 26000 J/K/m3	–
[1], 289.81 K	2053900 ± 28000 J/K/m3	–
[1], 289.82 K	2063600 ± 28000 J/K/m3	–
[1], 289.83 K	2084100 ± 29000 J/K/m3	–
[1], 289.85 K	2111800 ± 35000 J/K/m3	–
[1], 289.86 K	2155800 ± 53000 J/K/m3 and 2141800 ± 67000 J/K/m3 and 2104500 ± 120000 J/K/m3	–
[1], 289.87 K	2067700 ± 510000 J/K/m3 and 2029900 ± 150000 J/K/m3 and 1997600 ± 66000 J/K/m3	–
[1], 289.88 K	1943900 ± 39000 J/K/m3 and 1858200 ± 29000 J/K/m3	–
[1], 289.89 K	1823500 ± 26000 J/K/m3	–
[1], 289.9 K	1809500 ± 24000 J/K/m3	–
[1], 289.92 K	1795800 ± 27000 J/K/m3	–
[1], 289.93 K	1786900 ± 29000 J/K/m3	–
[1], 289.94 K	1780500 ± 28000 J/K/m3	–
[1], 289.95 K	1778700 ± 32000 J/K/m3	–
[1], 289.98 K	1770500 ± 36000 J/K/m3	–
[1], 290.01 K	1757500 ± 12000 J/K/m3	–
[1], 290.04 K	1756200 ± 12000 J/K/m3	–
[1], 290.06 K	1746900 ± 11000 J/K/m3	–
[1], 290.09 K	1748200 ± 9900 J/K/m3	–
[1], 290.12 K	1747000 ± 10000 J/K/m3	–
[1], 290.15 K	1739100 ± 10000 J/K/m3	–
[1], 290.18 K	1736600 ± 10000 J/K/m3	–
[1], 290.21 K	1740600 ± 9500 J/K/m3	–
[1], 290.24 K	1732400 ± 9900 J/K/m3	–
[1], 290.27 K	1728300 ± 9700 J/K/m3	–
[1], 290.44 K	1721500 ± 9200 J/K/m3	–
[1], 290.64 K	1711900 ± 8600 J/K/m3	–
[1], 290.84 K	1707300 ± 8400 J/K/m3	–
[1], 291.04 K	1702300 ± 8600 J/K/m3	–
[1], 291.24 K	1698500 ± 8400 J/K/m3	–
[1], 291.44 K	1694500 ± 8400 J/K/m3	–
[1], 291.64 K	1693500 ± 8400 J/K/m3	–
[1], 291.85 K	1691400 ± 8600 J/K/m3	–
[1], 292.05 K	1688200 ± 8400 J/K/m3	–
[1], 292.25 K	1688500 ± 8400 J/K/m3	–
[1], 292.45 K	1685900 ± 8400 J/K/m3	–
[1], 292.65 K	1684300 ± 8200 J/K/m3	–
[1], 292.85 K	1683400 ± 8200 J/K/m3	–
[1], 293.19 K	1682100 ± 7800 J/K/m3	–
[1], 293.43 K	1680500 ± 7600 J/K/m3	–
[1], 293.65 K	1678500 ± 8000 J/K/m3	–
[1], 293.88 K	1679000 ± 7600 J/K/m3	–
[1], 294.11 K	1678400 ± 7800 J/K/m3	–
[1], 294.34 K	1676100 ± 7800 J/K/m3	–
[1], 294.57 K	1675700 ± 7400 J/K/m3	–
[1], 294.8 K	1675100 ± 7800 J/K/m3	–
[1], 295.11 K	1673900 ± 800 J/K/m3	–
[1], 295.85 K	1672100 ± 800 J/K/m3	–
[1], 296.59 K	1670800 ± 800 J/K/m3	–
[1], 297.34 K	1670100 ± 800 J/K/m3	–
[1], 298.08 K	1669100 ± 800 J/K/m3	–
[1], 298.82 K	1667900 ± 800 J/K/m3	–
[1], 299.57 K	1667300 ± 800 J/K/m3	–
[1], 300.31 K	1667200 ± 800 J/K/m3	–
[1], 301.05 K	1666300 ± 800 J/K/m3	–
[1], 301.8 K	1666200 ± 800 J/K/m3	–
[1], 302.54 K	1665900 ± 600 J/K/m3	–
[1], 303.29 K	1665200 ± 600 J/K/m3	–
[1], 304.03 K	1665100 ± 600 J/K/m3	–
[1], 304.77 K	1665400 ± 600 J/K/m3	–
[1], 305.52 K	1665600 ± 600 J/K/m3	–
[1], 306.26 K	1665000 ± 600 J/K/m3	–
[1], 307 K	1664800 ± 600 J/K/m3	–
[1], 307.75 K	1665500 ± 600 J/K/m3	–
[1], 308.49 K	1665600 ± 600 J/K/m3	–
[1], 309.23 K	1665400 ± 600 J/K/m3	–
[1], 309.98 K	1665500 ± 600 J/K/m3	–
[1], 310.72 K	1665900 ± 600 J/K/m3	–
[1], 311.46 K	1666400 ± 600 J/K/m3	–
[1], 312.21 K	1666000 ± 600 J/K/m3	–
[1], 312.95 K	1665700 ± 600 J/K/m3	–
[1], 313.69 K	1666100 ± 600 J/K/m3	–
[1], 314.44 K	1667100 ± 600 J/K/m3	–
[1], 315.18 K	1666800 ± 600 J/K/m3	–
[1], 315.92 K	1667700 ± 600 J/K/m3	–
[1], 316.67 K	1668100 ± 600 J/K/m3	–
[1], 317.41 K	1667700 ± 600 J/K/m3	–
[1], 318.15 K	1667700 ± 600 J/K/m3	–
[1], 318.9 K	1668700 ± 600 J/K/m3	–
[1], 319.64 K	1667900 ± 600 J/K/m3	–
[1], 320.69 K	1668700 ± 600 J/K/m3	–
[1], 321.75 K	1669700 ± 600 J/K/m3	–
[1], 322.8 K	1669700 ± 600 J/K/m3	–
[1], 323.86 K	1670100 ± 600 J/K/m3	–
[1], 324.91 K	1671400 ± 600 J/K/m3	–
[2], x2 = 0.133	–	1.5005 ± 0.0004
[2], x2 = 0.212	–	1.4877 ± 0.0004
[2], x2 = 0.336	–	1.4708 ± 0.0004
[2], x2 = 0.42	–	1.4607 ± 0.0004
[2], x2 = 0.512	–	1.4513 ± 0.0003
[2], x2 = 0.606	–	1.443 ± 0.0003
[2], x2 = 0.704	–	1.4351 ± 0.0003
[2], x2 = 0.799	–	1.4285 ± 0.0003
[2], x2 = 0.902	–	1.4222 ± 0.0003
